What was measured:
[1] = heat stability to withstand spray drying; format: physicochemical; settings: temperature range of from about 40° C. to about 100° C.
[2] = biological target: T1, COX-2 (Homo sapiens, UniProt P35354); test: in vitro activity of COX-2; format: biochemical
T1 sequence (P35354 18-604): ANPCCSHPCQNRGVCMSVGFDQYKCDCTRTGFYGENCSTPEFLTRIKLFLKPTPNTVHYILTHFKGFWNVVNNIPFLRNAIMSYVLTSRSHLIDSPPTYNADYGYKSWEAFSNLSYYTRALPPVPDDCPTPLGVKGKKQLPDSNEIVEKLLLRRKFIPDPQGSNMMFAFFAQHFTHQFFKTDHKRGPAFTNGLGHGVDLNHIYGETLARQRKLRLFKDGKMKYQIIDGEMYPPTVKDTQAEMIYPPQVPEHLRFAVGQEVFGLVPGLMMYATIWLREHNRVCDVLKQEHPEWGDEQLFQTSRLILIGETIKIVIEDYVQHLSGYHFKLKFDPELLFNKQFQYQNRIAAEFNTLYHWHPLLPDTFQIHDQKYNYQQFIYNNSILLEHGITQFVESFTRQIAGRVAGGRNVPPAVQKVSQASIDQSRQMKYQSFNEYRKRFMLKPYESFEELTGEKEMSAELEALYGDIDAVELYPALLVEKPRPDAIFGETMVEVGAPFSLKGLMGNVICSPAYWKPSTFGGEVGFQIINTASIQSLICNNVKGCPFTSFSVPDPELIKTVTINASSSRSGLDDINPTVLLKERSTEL

[3] = Comparative dissolution of crystalline Form B and amorphous compound; format: physicochemical; settings: 150 mg in 900 mL, 37° C., paddle speed 100 rpm, particle size 212-425 μm, HPLC
Description: Dissolution rates for the crystalline compound having Form B and the amorphous compound were determined and compared in two media: water and simulated intestinal fluid (SIF) minus pancreatin.
Initial materials were sieved and material with a particle size between 212 and 425 μm was used for the study. A 150 mg sample was added to 900 mL of fluid in a dissolution bath. A temperature of 37° C. and a paddle speed of 100 rpm were used for the dissolution. Samples were pulled at specific time points (5, 15, 30 120, and 240 min) and filtered through a 0.2 μm nylon filter. Samples were analyzed by HPLC.

Row | heat stability [1] | inhibits in vitro activity of COX-2 [2] | Structure (SMILES) | dissolution rate in simulated intestinal fluid (SIF) minus pancreatin [3] | dissolution rate in water [3]
1 | sufficient heat stability |  | Cc1nc(C2CCCCC2)c(-c2ccc(S(N)(=O)=O)c(F)c2)o1 [5-(4-aminosulfonyl-3-fluorophenyl)-4-cyclohexyl-2-methyloxazole] |  | 
2 |  | nanomolar range | Cc1nc(C2CCCCC2)c(-c2ccc(S(N)(=O)=O)c(F)c2)o1 [amorphous compound, 5-(4-aminosulfonyl-3-fluorophenyl)-4-cyclohexyl-2-methyloxazole] | dissolved more rapidly | dissolved more rapidly
3 |  |  | Cc1nc(C2CCCCC2)c(-c2ccc(S(N)(=O)=O)c(F)c2)o1 [crystalline compound having Form B, 5-(4-aminosulfonyl-3-fluorophenyl)-4-cyclohexyl-2-methyloxazole] | significantly slower dissolution rate than the amorphous form | significantly slower dissolution rate than the amorphous form

From patent US20020032226A1, “Novel form of an oxazole compound” (priority 2000, published 2002)
